Measurements from ChEMBL document CHEMBL1201862, “PubChem BioAssay data set” (2004).
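Five concentrations, 48 hours, 96-well plates. GI50 = concentration required for 50% inhibition of growth.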 Active and inactive are the calls of the source. Rule as the data show it: active = GI50 up to about 1.1 µM and inactive = higher.

Key:
Assay in all cases: NCI-60 cell line screen, 48 h
[1] = test system: SNB-19
[2] = test system: 786-0
[3] = test system: NCI-H522
[4] = test system: KM12
[5] = test system: UACC-62
[6] = test system: NCI-H226
[7] = test system: U-251
[8] = test system: CAKI-1
[9] = test system: HOP-62
[10] = test system: LOX IMVI
[11] = test system: K562
[12] = test system: RPMI-8226
[13] = test system: SF-295
[14] = test system: HL-60
[15] = test system: IGROV-1
[16] = test system: MDA-MB-435
[17] = test system: MDA-MB-231
[18] = test system: SNB-75
[19] = test system: SK-MEL-2
[20] = test system: SW-620
[21] = test system: EKVX
[22] = test system: HCT-15
[23] = test system: OVCAR-3
[24] = test system: RXF 393
[25] = test system: MDA-N
[26] = test system: A498
[27] = test system: T47D
[28] = test system: PC-3
[29] = test system: TK-10
[30] = test system: M14
[31] = test system: MCF7
[32] = test system: NCI-H460
[33] = test system: A549
[34] = test system: HOP-92
[35] = test system: HCC 2998
[36] = test system: SK-MEL-5
[37] = test system: SK-OV-3
[38] = test system: SF-268
[39] = test system: Hs-578T
[40] = test system: UO-31
[41] = test system: OVCAR-4
[42] = test system: HCT-116
[43] = test system: SN12C
[44] = test system: HT-29
[45] = test system: OVCAR-5
[46] = test system: COLO 205
[47] = test system: ACHN
[48] = test system: DU-145
[49] = test system: UACC-257
[50] = test system: Malme-3M
[51] = test system: OVCAR-8
[52] = test system: MOLT-4
[53] = test system: NCI/ADR-RES
[54] = test system: NCI-H23
[55] = test system: BT-549
[56] = test system: SK-MEL-28
[57] = test system: CCRF-CEM
[58] = test system: SF-539
[59] = test system: SR

CC1OC(O[C@H]2C3C=CO[C@@H](OC4OC(CO)C(O)C(O)C4O)C3[C@@]3(COC(=O)/C=C/c4ccc(O)cc4)O[C@@H]23)C(O)C(O)C1O (stereo not given in full)
GI50 [1]: > 100 µM (inactive) | GI50 [2]: > 100 µM (inactive) | GI50 [3]: > 100 µM (inactive) | GI50 [4]: > 100 µM (inactive) | GI50 [5]: > 100 µM (inactive) | GI50 [6]: > 100 µM (inactive) | GI50 [7]: > 100 µM (inactive) | GI50 [8]: > 100 µM (inactive) | GI50 [9]: > 100 µM (inactive) | GI50 [10]: > 100 µM (inactive) | GI50 [11]: > 100 µM (inactive) | GI50 [12]: > 100 µM (inactive) | GI50 [13]: > 100 µM (inactive) | GI50 [14]: > 100 µM (inactive) | GI50 [15]: > 100 µM (inactive) | GI50 [16]: > 100 µM (inactive) | GI50 [17]: > 100 µM (inactive) | GI50 [18]: > 100 µM (inactive) | GI50 [19]: > 100 µM (inactive) | GI50 [20]: > 100 µM (inactive) | GI50 [21]: > 100 µM (inactive) | GI50 [22]: > 100 µM | GI50 [23]: > 100 µM (inactive) | GI50 [24]: > 100 µM (inactive) | GI50 [25]: > 100 µM (inactive) | GI50 [26]: > 100 µM (inactive) | GI50 [27]: > 100 µM (inactive) | GI50 [28]: > 100 µM (inactive) | GI50 [29]: > 100 µM (inactive) | GI50 [30]: > 100 µM (inactive) | GI50 [31]: > 100 µM (inactive) | GI50 [32]: > 100 µM (inactive) | GI50 [33]: > 100 µM (inactive) | GI50 [34]: > 100 µM (inactive) | GI50 [35]: > 100 µM (inactive) | GI50 [36]: > 100 µM (inactive) | GI50 [37]: > 100 µM (inactive) | GI50 [38]: > 100 µM (inactive) | GI50 [39]: > 100 µM (inactive) | GI50 [40]: > 100 µM (inactive) | GI50 [41]: > 100 µM (inactive) | GI50 [42]: > 100 µM (inactive) | GI50 [43]: > 100 µM (inactive) | GI50 [44]: > 100 µM (inactive) | GI50 [45]: > 100 µM (inactive) | GI50 [46]: > 100 µM (inactive) | GI50 [47]: > 100 µM (inactive) | GI50 [48]: > 100 µM (inactive) | GI50 [49]: > 100 µM (inactive) | GI50 [50]: > 100 µM (inactive) | GI50 [51]: > 100 µM (inactive) | GI50 [52]: > 100 µM (inactive) | GI50 [53]: > 100 µM (inactive) | GI50 [54]: > 100 µM (inactive) | GI50 [55]: > 100 µM (inactive) | GI50 [56]: > 100 µM (inactive)

C=C1CC(C)(COc2ccc3c(C)c(Cl)c(=O)oc3c2)OC1=O (stereo not given)
GI50 [1]: 12.9 µM (inactive) | GI50 [2]: 1.35 µM (inactive) | GI50 [3]: 0.632 µM (active) | GI50 [4]: 3.65 µM (inactive) | GI50 [5]: 1.39 µM (inactive) | GI50 [6]: 2.83 µM (inactive) | GI50 [7]: 7.82 µM (inactive) | GI50 [8]: 0.59 µM (active) | GI50 [9]: 10.3 µM (inactive) | GI50 [10]: 0.964 µM (active) | GI50 [11]: 0.518 µM (active) | GI50 [12]: 0.391 µM (active) | GI50 [13]: 6.12 µM (inactive) | GI50 [14]: 0.12 µM (active) | GI50 [15]: 1.76 µM (inactive) | GI50 [16]: 2.97 µM (inactive) | GI50 [17]: 3.53 µM (inactive) | GI50 [18]: 2.02 µM (inactive) | GI50 [19]: 1.44 µM (inactive) | GI50 [20]: 0.461 µM (active) | GI50 [21]: 5.9 µM (inactive) | GI50 [22]: 2.03 µM | GI50 [23]: 2.89 µM (inactive) | GI50 [25]: 0.762 µM (active) | GI50 [27]: 0.361 µM (active) | GI50 [28]: 2.52 µM (inactive) | GI50 [29]: 0.942 µM (active) | GI50 [30]: 1.26 µM (inactive) | GI50 [31]: 1.24 µM (inactive) | GI50 [32]: 6.97 µM (inactive) | GI50 [33]: 11.1 µM (inactive) | GI50 [34]: 1.06 µM (active) | GI50 [35]: 1.81 µM (inactive) | GI50 [36]: 1.43 µM (inactive) | GI50 [37]: 4.88 µM (inactive) | GI50 [38]: 3.52 µM (inactive) | GI50 [39]: 3.11 µM (inactive) | GI50 [40]: 3.34 µM (inactive) | GI50 [41]: 2.31 µM (inactive) | GI50 [57]: 0.331 µM (active) | GI50 [42]: 0.408 µM (active) | GI50 [43]: 5.07 µM (inactive) | GI50 [44]: 0.984 µM (active) | GI50 [45]: 4.23 µM (inactive) | GI50 [46]: 0.729 µM (active) | GI50 [47]: 2.82 µM (inactive) | GI50 [48]: 2.4 µM (inactive) | GI50 [49]: 1.15 µM (inactive) | GI50 [50]: 1.9 µM (inactive) | GI50 [51]: 2.75 µM (inactive) | GI50 [58]: 3.61 µM (inactive) | GI50 [52]: 1.05 µM (active) | GI50 [53]: 2.35 µM (inactive) | GI50 [59]: 0.865 µM (active) | GI50 [54]: 1.21 µM (inactive) | GI50 [55]: 1.31 µM (inactive) | GI50 [56]: 2.42 µM (inactive)

CCOC(=O)CO/N=C1/C(=C2/C(=O)Nc3ccccc32)Nc2ccccc21
GI50 [1]: 10 µM (inactive) | GI50 [2]: 7.5 µM (inactive) | GI50 [3]: > 100 µM (inactive) | GI50 [4]: 0.0955 µM (active) | GI50 [5]: 48.6 µM (inactive) | GI50 [7]: 6.78 µM (inactive) | GI50 [8]: 20.1 µM (inactive) | GI50 [9]: 8.3 µM (inactive) | GI50 [10]: > 100 µM (inactive) | GI50 [11]: > 100 µM (inactive) | GI50 [12]: > 100 µM (inactive) | GI50 [13]: 33.3 µM (inactive) | GI50 [14]: > 100 µM (inactive) | GI50 [15]: 2.58 µM (inactive) | GI50 [16]: > 100 µM (inactive) | GI50 [17]: 7.4 µM (inactive) | GI50 [18]: 3.39 µM (inactive) | GI50 [19]: 39.6 µM (inactive) | GI50 [20]: 34.7 µM (inactive) | GI50 [21]: 13.4 µM (inactive) | GI50 [22]: 81.7 µM | GI50 [23]: 12.4 µM (inactive) | GI50 [24]: 7.82 µM (inactive) | GI50 [25]: > 100 µM (inactive) | GI50 [26]: 15.1 µM (inactive) | GI50 [27]: 2.29 µM (inactive) | GI50 [28]: 78.7 µM (inactive) | GI50 [29]: 86.3 µM (inactive) | GI50 [30]: > 100 µM (inactive) | GI50 [31]: 50.1 µM (inactive) | GI50 [32]: > 100 µM (inactive) | GI50 [33]: 24.5 µM (inactive) | GI50 [34]: 16.9 µM (inactive) | GI50 [35]: > 100 µM (inactive) | GI50 [36]: 49.5 µM (inactive) | GI50 [37]: 13.6 µM (inactive) | GI50 [38]: 27 µM (inactive) | GI50 [39]: 36.2 µM (inactive) | GI50 [40]: 86.7 µM (inactive) | GI50 [41]: 3.24 µM (inactive) | GI50 [57]: > 100 µM (inactive) | GI50 [42]: 5.12 µM (inactive) | GI50 [43]: 31.3 µM (inactive) | GI50 [44]: > 100 µM (inactive) | GI50 [45]: > 100 µM (inactive) | GI50 [46]: > 100 µM (inactive) | GI50 [47]: 67 µM (inactive) | GI50 [48]: > 100 µM (inactive) | GI50 [49]: > 100 µM (inactive) | GI50 [50]: > 100 µM (inactive) | GI50 [51]: 6.21 µM (inactive) | GI50 [58]: 41.1 µM (inactive) | GI50 [52]: 22 µM (inactive) | GI50 [53]: > 100 µM (inactive) | GI50 [54]: 17 µM (inactive) | GI50 [55]: 78.3 µM (inactive) | GI50 [56]: > 100 µM (inactive)
